Converted amounts (≈) assume the structure as drawn.

The subject of one assay is MSSA 1. The assay is described as follows: MIC determination (LB agar dilution), clinical MSSA strain 1. The assay is classed as cell-based. Particulars: Staphylococcus aureus, at least two replicates. The protocol: (§1) All of the tested compounds were prepared to different concentrations with methanol, and 150 μL of the respective methanol solution was used to mix with 15 mL LB (Luria–Bertani) medium with 1% agar in each Petri dish. Linezolid and PTM were used as reference compounds for comparison. In vitro bioassay for compounds was carried out using clinical strains of S. aureus, E. coli, and Klebsilla pneumoniae. The bacteria were cultivated in LB medium and incubated for 16 h at 37 °C, 250 rpm. The resulting bacteria were diluted to approximate 0.25 at OD600, which were further diluted 10_4-fold. The diluted bacteria (2 μL) were added to Petri dish containing the respective compounds. The resulting Petri dishes were incubated for 16 h at 37 °C. The determination of MIC is the concentration of Petri dishes with no visible growth of bacteria.
For orientation: Agar dilution tests growth on a series of plates holding different concentrations.

A further assay deals with MRSA 4. Nature of the assay: MIC determination (LB agar dilution), clinical MRSA strain 4. Particulars: Staphylococcus aureus, at least two replicates. Type of assay: cell-based. How it is done:
as §1

For another assay, the system named is MRSA 3. Nature of the assay: MIC determination (LB agar dilution), clinical MRSA strain 3. The assay is classed as cell-based. Particulars: Staphylococcus aureus, at least two replicates. How it is done: as §1
The test system of a further assay is S. aureus ATCC 29213. The assay is described as follows: MIC determination (LB agar dilution), S. aureus ATCC 29213. Type of assay: cell-based. Particulars: Staphylococcus aureus, ATCC29213, at least two replicates. How it is done:
as §1

The subject of a further assay is MSSA 2. The assay is described as follows: MIC determination (LB agar dilution), clinical MSSA strain 2. Type of assay: cell-based. Particulars: Staphylococcus aureus, at least two replicates. The protocol: as §1
Another assay deals with MRSA. The assay is classed as in vivo. Particulars: 50 mg/kg intraperitoneal at 1 h and 5 h after infection, tracked 7 days, n = 5.

For the molecule `CC12CC34C=C(C#Cc5cccc(N)c5)C(=O)C(C)(CCC(=O)Nc5c(O)ccc(C(=O)O)c5O)C3C(CC1C4)O2` (stereo not drawn) [B9], the MIC against MSSA 1, against MRSA 4, with MRSA 3, in the assay on S. aureus ATCC 29213 and in the assay with MSSA 2 was 1 µg/mL (≈ 1.8 µM) each time.
Turning to `CCCCOC(=O)C=CC1=CC23CC4CC(OC4(C)C2)C3C(C)(CCC(=O)Nc2c(O)ccc(C(=O)O)c2O)C1=O` (stereo not drawn) [A3], the MIC with MSSA 1, against MRSA 4, in the assay with MRSA 3, against S. aureus ATCC 29213 and in the assay on MSSA 2 was 1 µg/mL (≈ 1.76 µM) throughout.
As for `CN(C)C(=O)C=CC1=CC23CC4CC(OC4(C)C2)C3C(C)(CCC(=O)Nc2c(O)ccc(C(=O)O)c2O)C1=O` (stereo not drawn) [A7], the MIC against MSSA 1, with MRSA 4, in the assay with MRSA 3, in the assay on S. aureus ATCC 29213 and with MSSA 2 was 16 µg/mL (≈ 29.7 µM) in each case.
Turning to `CC(C)NC(=O)C=CC1=CC23CC4CC(OC4(C)C2)C3C(C)(CCC(=O)Nc2c(O)ccc(C(=O)O)c2O)C1=O` (stereo not drawn) [A8], the MIC in the assay with MSSA 1, against MRSA 4, with MRSA 3, with S. aureus ATCC 29213 and with MSSA 2 was 32 µg/mL (≈ 57.9 µM) each time.
With `CCc1ccc(C#CC2=CC34CC5CC(OC5(C)C3)C4C(C)(CCC(=O)Nc3c(O)ccc(C(=O)O)c3O)C2=O)cc1` (stereo not drawn) [B11], the MIC against MSSA 1, with MRSA 4, against MRSA 3, with S. aureus ATCC 29213 and with MSSA 2 was 1 µg/mL (≈ 1.76 µM) each time.
Take `CCCCC#CC1=CC23CC4CC(OC4(C)C2)C3C(C)(CCC(=O)Nc2c(O)ccc(C(=O)O)c2O)C1=O` (stereo not drawn) [B2]: the MIC in the assay with MSSA 1, with MRSA 4, with MRSA 3, with S. aureus ATCC 29213 and in the assay on MSSA 2 was 1 µg/mL (≈ 1.92 µM) in each case.
With `CC(=O)C1=C(C)OC(Cc2cccc(F)c2)=C2C(=O)C(C)(CCC(=O)Nc3c(O)ccc(C(=O)O)c3O)C3C4CC5CC3(CC5(C)O4)C12` (stereo not drawn) [C5], the MIC against MSSA 1, in the assay with MRSA 4, with MRSA 3, against S. aureus ATCC 29213 and against MSSA 2 was 16 µg/mL (≈ 24.3 µM) throughout.
In the case of `CC12CC34C=C(C#CC5(O)CCCCC5)C(=O)C(C)(CCC(=O)Nc5c(O)ccc(C(=O)O)c5O)C3C(CC1C4)O2` (stereo not drawn) [B6], the MIC with MSSA 1, against MRSA 4, in the assay on MRSA 3, against S. aureus ATCC 29213 and against MSSA 2 was 4 µg/mL (≈ 7.1 µM) throughout.
As for `CC(C)(C)NC(=O)C=CC1=CC23CC4CC(OC4(C)C2)C3C(C)(CCC(=O)Nc2c(O)ccc(C(=O)O)c2O)C1=O` (stereo not drawn) [A9], the MIC against MSSA 1, against MRSA 4, with MRSA 3, against S. aureus ATCC 29213 and in the assay on MSSA 2 was 8 µg/mL (≈ 14.1 µM) each time.
For the molecule `CCCCCC#CC1=CC23CC4CC(OC4(C)C2)C3C(C)(CCC(=O)Nc2c(O)ccc(C(=O)O)c2O)C1=O` (stereo not drawn) [B5], the MIC against MSSA 1, in the assay on MRSA 4, in the assay with MRSA 3, in the assay on S. aureus ATCC 29213 and against MSSA 2 was 1 µg/mL (≈ 1.87 µM) each time.
For the molecule `CCc1ccc(CC2=C3C(=O)C(C)(CCC(=O)Nc4c(O)ccc(C(=O)O)c4O)C4C5CC6CC4(CC6(C)O5)C3C(C(C)=O)=C(C)O2)cc1` (stereo not drawn) [C3], the MIC in the assay with MSSA 1, against MRSA 4, against MRSA 3, against S. aureus ATCC 29213 and with MSSA 2 was 32 µg/mL (≈ 47.8 µM) in each case.
For `CN[C@H](CC(C)C)C(=O)N[C@H]1C(=O)N[C@@H](CC(N)=O)C(=O)N[C@H]2C(=O)N[C@H]3C(=O)N[C@H](C(=O)N[C@H](C(=O)O)c4cc(O)cc(O)c4-c4cc3ccc4O)[C@H](O)c3ccc(c(Cl)c3)Oc3cc2cc(c3O[C@@H]2O[C@H](CO)[C@@H](O)[C@H](O)[C@H]2O[C@H]2C[C@](C)(N)[C@H](O)[C@H](C)O2)Oc2ccc(cc2Cl)[C@H]1O` [vancomycin, reference compound], the “survival of infected mice” value in the assay with MRSA amounted to 100%.
`COc1ccc(C#CC2=CC34CC5CC(OC5(C)C3)C4C(C)(CCC(=O)Nc3c(O)ccc(C(=O)O)c3O)C2=O)cc1` (stereo not drawn) [B13]: the MIC in the assay with MSSA 1, in the assay on MRSA 4, with MRSA 3, in the assay on S. aureus ATCC 29213 and in the assay on MSSA 2 was 1 µg/mL (≈ 1.75 µM) each time.
Consider `CC(=O)C1=C(C)OC(Cc2ccccc2)=C2C(=O)C(C)(CCC(=O)Nc3c(O)ccc(C(=O)O)c3O)C3C4CC5CC3(CC5(C)O4)C12` (stereo not drawn) [C1], for which the MIC with MSSA 1, in the assay on MRSA 4, with MRSA 3, with S. aureus ATCC 29213 and with MSSA 2 was 16 µg/mL (≈ 24.9 µM) in each case.
`COC(=O)C=CC1=CC23CC4CC(OC4(C)C2)C3C(C)(CCC(=O)Nc2c(O)ccc(C(=O)O)c2O)C1=O` (stereo not drawn) [A1]: the MIC with MSSA 1, with MRSA 4, against MRSA 3, against S. aureus ATCC 29213 and with MSSA 2 was 2 µg/mL (≈ 3.81 µM) in each case.
Regarding `CCCCc1ccc(C#CC2=CC34CC5CC(OC5(C)C3)C4C(C)(CCC(=O)Nc3c(O)ccc(C(=O)O)c3O)C2=O)cc1` (stereo not drawn) [B12], the MIC against MSSA 1, with MRSA 4, against MRSA 3, against S. aureus ATCC 29213 and in the assay with MSSA 2 was 8 µg/mL (≈ 13.4 µM) in each case.
As for `CC12CC34C=C(C#Cc5ccc(F)cc5)C(=O)C(C)(CCC(=O)Nc5c(O)ccc(C(=O)O)c5O)C3C(CC1C4)O2` (stereo not drawn) [B14], the MIC with MSSA 1, against MRSA 4, in the assay on MRSA 3, in the assay on S. aureus ATCC 29213 and against MSSA 2 was 1 µg/mL (≈ 1.79 µM) each time.
`CC(C)(C)C#CC1=CC23CC4CC(OC4(C)C2)C3C(C)(CCC(=O)Nc2c(O)ccc(C(=O)O)c2O)C1=O` (stereo not drawn) [B3]: the minimum inhibitory concentration (MIC) with MSSA 1, in the assay with MRSA 4, against MRSA 3, against S. aureus ATCC 29213 and against MSSA 2 was 1 µg/mL (≈ 1.92 µM) throughout.
With `CC12CC34C=C(C#CC5CC5)C(=O)C(C)(CCC(=O)Nc5c(O)ccc(C(=O)O)c5O)C3C(CC1C4)O2` (stereo not drawn) [B4], the MIC against MSSA 1, with MRSA 4, in the assay on MRSA 3, against S. aureus ATCC 29213 and with MSSA 2 was 1 µg/mL (≈ 1.98 µM) each time.
`CC(=O)C1=C(C)OC(Cc2ccc(C)cc2)=C2C(=O)C(C)(CCC(=O)Nc3c(O)ccc(C(=O)O)c3O)C3C4CC5CC3(CC5(C)O4)C12` (stereo not drawn) [C2]: the MIC against MSSA 1, in the assay on MRSA 4, in the assay with MRSA 3, against S. aureus ATCC 29213 and in the assay with MSSA 2 was 16 µg/mL (≈ 24.4 µM) in each case.
Consider `CC(=O)C1=C(C)OC(Cc2ccc(Cl)cc2)=C2C(=O)C(C)(CCC(=O)Nc3c(O)ccc(C(=O)O)c3O)C3C4CC5CC3(CC5(C)O4)C12` (stereo not drawn) [C7], for which the MIC against MSSA 1, in the assay on MRSA 4, against MRSA 3, against S. aureus ATCC 29213 and against MSSA 2 was 32 µg/mL (≈ 47.3 µM) each time.
On to `CC12CC34C=C(C=CC(N)=O)C(=O)C(C)(CCC(=O)Nc5c(O)ccc(C(=O)O)c5O)C3C(CC1C4)O2` (stereo not drawn) [A6], for which the MIC in the assay with MSSA 1, against MRSA 4, with MRSA 3, against S. aureus ATCC 29213 and against MSSA 2 was 64 µg/mL (≈ 125 µM) in each case.
Consider `C#CC1=CC23CC4CC(OC4(C)C2)C3C(C)(CCC(=O)Nc2c(O)ccc(C(=O)O)c2O)C1=O` (stereo not drawn) [B1], for which the MIC against MSSA 1, with MRSA 4, in the assay on MRSA 3, against S. aureus ATCC 29213 and in the assay on MSSA 2 was 8 µg/mL (≈ 17.2 µM) throughout.
As for `CC(=O)NC[C@H]1CN(c2ccc(N3CCOCC3)c(F)c2)C(=O)O1` [Linezolid, reference compound], the MIC in the assay on MSSA 1, with MRSA 4, against MRSA 3, in the assay on S. aureus ATCC 29213 and against MSSA 2 was 1 µg/mL (≈ 2.96 µM) throughout.
On to `Cc1ccc(C#CC2=CC34CC5CC(OC5(C)C3)C4C(C)(CCC(=O)Nc3c(O)ccc(C(=O)O)c3O)C2=O)cc1` (stereo not drawn) [B10], for which the MIC with MSSA 1 worked out at 4 µg/mL (≈ 7.2 µM); in the assay with MRSA 4 it was 4 µg/mL (≈ 7.2 µM); against MRSA 3, 8 µg/mL (≈ 14.4 µM); against S. aureus ATCC 29213, 8 µg/mL (≈ 14.4 µM); against MSSA 2, 4 µg/mL (≈ 7.2 µM).
Turning to `CCCCc1ccc(CC2=C3C(=O)C(C)(CCC(=O)Nc4c(O)ccc(C(=O)O)c4O)C4C5CC6CC4(CC6(C)O5)C3C(C(C)=O)=C(C)O2)cc1` (stereo not drawn) [C4], the MIC in the assay on MSSA 1, against MRSA 4, against MRSA 3, against S. aureus ATCC 29213 and against MSSA 2 was 32 µg/mL (≈ 45.9 µM) each time.
Consider `CC12CC34C=C(C=CC(=O)OCCO)C(=O)C(C)(CCC(=O)Nc5c(O)ccc(C(=O)O)c5O)C3C(CC1C4)O2` (stereo not drawn) [A2], for which the MIC against MSSA 1, with MRSA 4, against MRSA 3, against S. aureus ATCC 29213 and against MSSA 2 was 16 µg/mL (≈ 28.8 µM) throughout.
Consider `CC12CC34C=C(C#Cc5ccccc5)C(=O)C(C)(CCC(=O)Nc5c(O)ccc(C(=O)O)c5O)C3C(CC1C4)O2` (stereo not drawn) [B7], for which the MIC with MSSA 1, against MRSA 4, against MRSA 3, against S. aureus ATCC 29213 and against MSSA 2 was 1 µg/mL (≈ 1.85 µM) throughout.
`CC12CC34C=C(C#Cc5ccc(Cl)cc5)C(=O)C(C)(CCC(=O)Nc5c(O)ccc(C(=O)O)c5O)C3C(CC1C4)O2` (stereo not drawn) [B15]: the MIC against MSSA 1, with MRSA 4, against MRSA 3, in the assay with S. aureus ATCC 29213 and against MSSA 2 was 1 µg/mL (≈ 1.74 µM) throughout.

By MIC is commonly meant the lowest concentration that inhibits growth of the organism.

The values are drawn from article PMC9027111, “Morphing Natural Product Platensimycin via Heck, Sonogashira, and One-Pot Sonogashira/Cycloaddition Reactions to Produce Antibiotics with In Vivo Activity” (Antibiotics, 2022).
